The test system of one data set is female rats. Particulars: for diaphragmatic inflammation, severity grade / thickness of the diaphragm section involved by inflammation: 7 days intraperitoneal. As for the experimental part: A maximum tolerated dose study was conducted according to the study design in Table 3. Solutions that were administered were made up of a dextrose concentrate or a modified dextrose concentrate and a buffer concentrate or a modified buffer concentrate mixed in a 3:1 ratio (dextrose:buffer). Each test or control article was administered intraperitoneally once daily for 7 consecutive days to each of five different female rats at volumes of 40 mL/kg via a butterfly needle as a bolus injection. Necropsy was performed one day after the last dose.
Tissue samples of the diaphragms from all rats were trimmed, processed, embedded in paraffin, and sectioned. Hematoxylin and eosin stained slides were prepared and examined by light microscopy. Microscopic observations were subjectively graded based on the relative severity of the change: Grade 1=minimal, Grade 2=mild, Grade 3=moderate, grade 4=marked.

The test system of data set [1] is APOe-KO/CRF mouse model of vascular calcification. Particulars: for total aortic calcium content, effect on CRF-induced elevation: daily intraperitoneal, 8 weeks. On the procedure:
Homozygous apolipoprotein E knockout (apoE^−/−) mice were housed in polycarbonate cages in a pathogen-free, temperature-controlled (25° C.) room with a strict 12-hour light/dark cycle and with free access to lab chow and water. All procedures were in accordance with National Institutes of Health (“NIH”) guidelines for the care and use of experimental animals (NIH publication No. 85-23).
A 2-step procedure was used to create CRF in the mice at 10 weeks of age. Briefly, at age of 8 weeks, cortical electrocauterisation was applied to the right kidney through a 2-cm flank incision and contralateral total nephrectomy was performed through a similar incision 2 weeks later. Other mice underwent a 2-step procedure of sham operations with decapsulation of both kidneys with a 14-day distance between the two operations. Blood samples were taken 2 weeks after nephrectomy, and intra-peritoneal catheters were implanted at this time.
At the end of the study, the heart with the aortic root was then separated from ascending aorta. Cryosections of the aortic root tissue were used for quantification of vascular calcification and were used to assess atherosclerotic lesions at the site of the root. The thoracic part of the aorta was stored at −80° C. and used for quantification of calcium content.
Mice having high LDL will develop atherosclerosis. Those with the added partial nephrectomy will develop kidney impairment and were expected to produce marked vascular calcification of the heart and aorta, thus mimicking the disease seen in many dialysis patients. All groups were treated in a manner to mimic a peritoneal dialysis therapy, with a peritoneal dialysis solution either in the absence of PPi (sham and CRF placebo control groups) or containing two different doses of PPi (as outlined above).
Next, a method was employed whereby morphological image processing algorithms were used for the semi-automated measurement of calcification from sections of aorta stained using von Kossa's silver nitrate procedure (FIGS. 3A and 3B). These were acquired at low magnification power on color images. The process was separated into two sequential phases: 1) segmentation to separate the calcification structures and demarcate the region of the atherosclerotic lesion within the tissue, and 2) the quantification. Calcified structures were measured inside and outside the lesion using a granulometric curve that allows the calculation of statistical parameters of size.

Read-outs that look alike come from different tables or passages of the source.

In the case of `O=P([O-])([O-])OP(=O)(O)O.[Na+].[Na+]` [disodium pyrophosphate], in the data set on female rats (600 μM), the “diaphragmatic inflammation, severity grade” value is given as “mild (Grade 2)” and the “thickness of the diaphragm section involved by inflammation” value is 5-25%. In addition, in the data set on female rats (900 μM), the “diaphragmatic inflammation, severity grade” value is “mild in 1 rat and moderate in 4 of 5 rats”; the “thickness of the diaphragm section involved by inflammation” value is “up to 50%”. Further, the “concentration producing chronic inflammation of the peritoneal surface of the diaphragm (local effect)” value in the data set with female rats (intraperitoneal, 7 consecutive days, 40 mL/kg/day, rats) is not below 600 µM.
For `O=P(O)(O)OP(=O)(O)O` [pyrophosphate], the “total aortic calcium content, effect on CRF-induced elevation” value in data set [1] (30 μM PPi in dialysis solution) is recorded as “moderate reduction, that was not statistically significant”. Also, the “total aortic calcium content, effect on CRF-induced elevation” value in data set [1] (150 μM PPi in dialysis solution) is listed as “completely blocked the effect of CRF on elevation of aortic calcium”. For the same molecule, in data set [1] (high dose PPi (150 μM)), the “aortic root calcification inside the atherosclerotic lesion (von Kossa)” value is recorded as “completely prevented the elevation due to CRF” and the “aortic root calcification outside the lesion (von Kossa)” value is given as “totally blocked”. In data set [1] (low dose PPi (30 μM)), the “aortic root calcification outside the lesion (von Kossa)” value was “totally blocked” and the “inhibition of aortic root calcification inside the atherosclerotic lesion (von Kossa)” value is on record as “approximately 50%”.
